According to PMC4942611, “Promising Tools in Prostate Cancer Research: Selective Non-Steroidal Cytochrome P450 17A1 Inhibitors” (Scientific Reports, 2016):
Like-named read-outs stand apart in the source and are kept apart here.

What was measured:
[1] = biological target: T1, human CYP17A1 (Homo sapiens, UniProt P05093); assay: 17α-hydroxypregnenolone 17,20-lyase inhibition with purified CYP17A1; assay type: biochemical; conditions: conversion of 17-OH-PRE into DHEA, 1.2 μM 17α-hydroxypregnenolone; mean over 3 measurements ± standard error
T1 construct: bearing a truncation of the N-terminal helix; made in house
T1 sequence (P05093 with tags, fused parts or gaps limits assumed): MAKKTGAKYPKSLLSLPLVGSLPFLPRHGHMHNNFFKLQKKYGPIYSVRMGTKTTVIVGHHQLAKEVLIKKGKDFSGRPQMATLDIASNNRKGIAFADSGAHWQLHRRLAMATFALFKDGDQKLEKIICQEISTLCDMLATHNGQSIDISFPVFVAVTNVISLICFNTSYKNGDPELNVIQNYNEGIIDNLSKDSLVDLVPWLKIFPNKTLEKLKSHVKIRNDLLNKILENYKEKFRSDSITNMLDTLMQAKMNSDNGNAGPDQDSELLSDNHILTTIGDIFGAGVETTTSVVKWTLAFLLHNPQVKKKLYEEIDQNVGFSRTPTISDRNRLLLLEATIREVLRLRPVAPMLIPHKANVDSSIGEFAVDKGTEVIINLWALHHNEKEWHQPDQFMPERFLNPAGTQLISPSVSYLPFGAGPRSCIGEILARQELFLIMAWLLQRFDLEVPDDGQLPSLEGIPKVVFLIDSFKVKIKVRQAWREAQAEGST
Description: Purified cytochrome P450 17A1 (50 nmol) was incubated with truncated human cytochrome P450 reductase[48] and rat cytochrome b5 in a 1:4:0 or 1:4:4 ratio for hydroxylase and 17,20-lyase reactions, respectively. […] Reactions were initiated upon addition of 25 mM NADPH as the electron source. The hydroxylated product was quantified after HPLC using an UV detector and analyzed as previously published. The 17,20-lyase assay was performed similarly substituting 1.2 μM of 17α-hydroxypregnenolone as the substrate and inhibitor concentrations of 0–500 nM. The dehydroepiandrosterone product was quantitated using a coupled GC/MS method.

[2] = system: H295R cell line; assay: H295R steroid hormone synthesis assay, production of steroidal hormones; assay type: cell-based, human; conditions: for IC50: Homo sapiens, NCI-H295R
Description: The H295R steroid hormone synthesis assay was performed according to the OECD validation guideline. Cells were cultured in DMEM/F12 media supplemented with 1% ITS-premix and 2.5% Nu-serum at 37 °C with a 5% CO2 atmosphere. The cells were only used for experiments between passage […]. During exposure experiments, cells were grown in 24 well plates with a density of 3 × 10^5 cells/mL. […] To avoid interference from low levels of steroid hormones present in the Nu-serum, the exposure experiment was conducted with serum-free media. Each compound was tested at a minimum of seven concentration levels using three or more replicates and the experiment was repeated on two different days (n = 6–15). On each test plate a solvent control (SC) (medium with 0.1% DMSO) was included in triplicate and the maximal concentration of DMSO in the cell medium was 0.1%[49]. After 48 hours of incubation in presence of the test compounds, 950 μL of the medium was carefully removed and internal standards (50 μl of 0.1 μg/μl solution containing deuterated steroid analogues) were added. Samples were stored at −20 °C for later analysis.
Steroid extraction and clean-up were performed by double protein precipitation. First, 900 μL of cold acetonitrile were added to the samples, which were then vortexed and centrifuged at ~9500 × g for 10 minutes. Second, 900 μL cold methanol was added to the supernatant and the mixture was vortexed and centrifuged at 1500 × g for 10 minutes. Finally, the supernatant was collected and concentrated to ~1 mL under a gentle stream of nitrogen at 60 °C.
For on-line solid phase extraction (SPE) of steroids, a total of 100 μL was injected on a binary 1290 Agilent Infinity Series system and a binary 1100 Agilent HPLC pump were used in combination (Agilent Technologies, Palo Alto, CA, USA). For online clean-up, a C18 enrichment column (μbondapak® C18, 3.9 × 20 mm, 10 μm, Waters) was used. The enrichment column was connected to the autosampler through the TTC switching valve (two positions, 6 ports). Between the autosampler and the TTC switching valve a 0.3 μm in-line filter (1290 infinity in-line filter, Agilent) was installed. Separation of steroid hormones was performed using a C18 analytical column (Kinetex, 2.6 μm C18 100 Å, 75 × 2.1 mm, Phenomenex, USA). An isocratic flow of 1 mL/min H2O:methanol:formic acid at 90:10:0.1 (v/v/v) was generated by the 1100 pump which was connected to the autosampler. The 1290 pump performed a gradient elution with a flow rate of 0.3 mL which was connected to the TTC switching valve. Mobile phase A and B were composed of H2O with 0.1% formic acid (v/v) and pure methanol, respectively. The elution gradient was maintained at 10% B for the first 2 min, changed to 10.0–30.0% from 2.0 to 2.2 min, 30.0–60.0% from 2.2 to 8.0 min, maintained at 60.0% from 8.0 to 10.0 min, increased to 60.0–85.0% from 10.0 to 12.30 min, 85.0–99.5% from 12.3 to 12.5 min and held at 99.5% from 12.5 to 14.8 min, before re-equilibrating the column until 16 minutes.
For detection, an AB SCIEX 4500 QTRAP mass spectrometer (Applied Biosystems, Foster City, CA, USA) equipped with an atmospheric pressure chemical ionization (APCI) Turbo V source was used. Multiple reaction monitoring (MRM) was performed in positive mode during the analysis with a targeted scan time of 0.8 sec. Nitrogen was applied as curtain, collision, and ion source gases.

[3] = H295R, progestagens, EC200 ± standard error
[4] = H295R, androgens, read-out: AN IC50
[5] = H295R, androgens, read-out: DHEA IC50
[6] = H295R, androgens, read-out: TS IC50
[7] = H295R, corticosteroids, read-out: 11deoxy-COR IC50
[8] = H295R, corticosteroids, read-out: 11deoxy-COS IC50
[9] = H295R, corticosteroids, read-out: COR IC50
[10] = H295R, corticosteroids, read-out: CORNE IC50
[11] = H295R, estrogens, read-out: E1 IC50
[12] = H295R, estrogens, read-out: E-E2 IC50
[13] = H295R, progestagens, mean over 6 to 15 measurements ± standard error, read-out: PREG IC50
[14] = H295R, progestagens, read-out: 17OH-PREG IC50
[15] = H295R, progestagens, read-out: 17OH-PROG IC50

Row | SMILES | IC50 [1] | Effect on the CYP17A1 substrates pregnenolone and progesterone ([2]; H295R cells) | PREG EC200 [2, 3] | PROG EC200 [2, 3] | IC50 [2, 4] | IC50 [2, 5] | IC50 [2, 6] | IC50 [2, 7] | IC50 [2, 8] | IC50 [2, 9] | IC50 [2, 10] | IC50 [2, 11] | IC50 [2, 12] | IC50 [2, 13] | IC50 [2, 14] | IC50 [2, 15] | also measured
1 | Cc1ccc(-c2csc(-c3cccnc3)n2)c(C)c1 [Compound 1] | 500 ± 90 nM | dose-dependent increases | 500 ± 70 nM | 146 ± 7 nM | 68 ± 2 nM | 94 ± 30 nM | 52 ± 2 nM | 480 ± 10 nM | 310 ± 60 nM | 1200 ± 100 nM | 700 ± 100 nM | 220 ± 10 nM | 235 ± 6 nM | 390 ± 70 nM | 830 ± 80 nM | 800 ± 200 nM | 11deoxy-COS EC200 ([2]; H295R, EC200 ± standard error): 146 ± 4 nM; COS EC200 ([2]; H295R, EC200 ± standard error): 56 ± 1 nM; IC50 ([2]; H295R cells, read-out: IC50 values for progestagens and corticosteroids (range)): 300 to 1200 nM
2 | CCCn1nnc2cc(-c3cc(-c4ccncc4)c(C#N)c(N)n3)ccc21 [Compound 2] | 110 ± 20 nM | dose-dependent increases | 19 ± 4 nM | 32 ± 4 nM | 4.3 ± 0.1 nM | 7.4 ± 0.1 nM | 3.3 ± 0.2 nM | 54 ± 5 nM | 23.8 ± 0.9 nM | 36 ± 4 nM | 23 ± 1 nM | 19 ± 3 nM | 50 ± 10 nM | 15 ± 3 nM | 52 ± 4 nM | 20 ± 1 nM | IC50 ([2]; H295R, corticosteroids, read-out: COS IC50): 36 ± 4 nM
3 | C[C@]12CC[C@H](O)CC1=CC[C@@H]1[C@@H]2CC[C@]2(C)C(c3cccnc3)=CC[C@@H]12 [abiraterone, reference compound] | 36 ± 2 nM |  | 7.3 ± 0.3 nM | 1.0 ± 0.1 nM | 0.5 nM | 1.8 ± 0.1 nM | 0.2 nM | 5.3 ± 0.1 nM |  | 5 ± 0.4 nM | 2.5 ± 0.1 nM | 0.8 ± 0.1 nM | 408 ± 60 nM | 5.9 ± 0.5 nM | 9.7 ± 0.3 nM | 6.3 ± 0.2 nM | IC50 ([2]; H295R, progestagens, mean over 6 to 15 measurements ± standard error, read-out: PROG IC50): 181 ± 5 nM; IC50 ([2]; H295R, calculated on low concentrations of abiraterone (first part of the Gaussian-like curve), read-out: 11deoxy-COS IC50): 2.6 ± 0.5 nM; IC50 ([2]; H295R, calculated on low concentrations of abiraterone (first part of the Gaussian-like curve), read-out: COS IC50): 2.9 ± 0.5 nM; IC50 ([2]; H295R, calculated using high concentrations of abiraterone (second part of the Gaussian-like curve), read-out: 11deoxy-COS IC50): 240 ± 20 nM
